This is an account of results in patent US8226972B2, “Vaginal delivery of drugs” (FemmePharma Holding Company, Inc., priority 2001, dated 2012).

SMILES strings stand for the structures. Where two headings read alike, the source gives them in different places.

For series [1], the system named is bladder. In words: Example 1: bladder pressure response to intra-arterial Ach after vaginal oxybutynin gel. In kind it is in vivo, rabbit. The note with it: for response of the bladder pressure to Ach: high dose (0.5 g Oxybutynin/g gel, 3 g vaginal). From the text:
(§1) 16 mature female New Zealand white rabbits were separated into two groups of eight. The rabbits in Group 1 received a high dose oxybutynin formulations; and the rabbits in Group 2 received a low dose oxybutynin formulation. For the high dose, 3 grams (g) of oxybutynin HCl were suspended in 6 g of gel (yielding a concentration of 0.5 g Oxybutynin/g gel) and 3 g of the formulation were placed in the vagina. For the low dose, 0.3 g of oxybutynin HCl were suspended in 6 g of gel (yielding a concentration of 0.05 g Oxybutynin/g gel), and 3 g of the formulation were placed in the vagina.
(§2) Each rabbit was sedated with an intramuscular injection of ketamine-xylazine ((25 mg ketamine+6 mg xylazine)/kg rabbit) and anesthesia was maintained by isoflurane. After anesthesia, the right external carotid artery was cannulated for blood pressure monitoring. A polyethylene catheter (Intramedic) with an outer diameter of 0.043 inches was inserted through the rabbit's right femoral artery until it reached the lower abdominal aorta (approximately 0.5 cm above the bifurcation of the aorta). A heparizined saline (30 iu/mL) filled polyethylene catheter was used for intra-arterial administration of drugs. To facilitate the delivery of the maximum amount of drugs to the urinary bladder, the rabbit's left femoral artery was ligated.
(§3) The bladder was exposed through a midline incision, and the bladder dome was catheterized with an 8 F catheter for both the monitoring of bladder pressure and for cystometry. The bladder neck-urethra was ligated to prevent micturition or leakage through the urethra. The catheter was connected to an infusion pump (Harvard Apparatus) and a pressure transducer.
(§4) Acetylcholine (Ach), a chemical that causes the bladder muscle (detrusor) to squeeze or contract, was injected through the intra-arterial polyethylene catheter in a volume of 0.31-0.39 mL (i.e., 0.1 mL/kg of rabbit), followed by 0.2 mL of heparinized saline. Change of intravesical pressure following the administration of Ach (10^−6 mol/kg) was monitored by the pressure transducer and recorded on a Grass model 7D polygraph. A 10-minute interval passed between Ach administrations, and three flushes of normal saline, in an amount of 0.1 ml/kg of rabbit, were administered. Three responses to Ach were performed at 10-minute intervals to ensure consistent responses.
(§5) After the third Ach administration, the application of the oxybutynin containing gel was administered to the vagina and the responses to Ach were determined at 15-minute intervals for 2 hours. When the response to Ach was reduced, then the time period was extended to 4 hours. At the end of the experiment, a second cystometric curve was generated.

The test system of series [2] is bladder. The experiment in a line: Example 1: cystometry (bladder capacity, Bladder Compliance). In kind it is in vivo, rabbit. The note with it: high dose (0.5 g/g gel) vaginal.
From the text: as §1, §3
Then, the rabbit was taken off of the isoflurane and anesthesia was maintained by ketamine-xylazine so that micturition reflexes could be observed during cystometry. […] Bladder capacity and Bladder Compliance were determined. […]
(§6) After the third Ach administration, the application of the oxybutynin containing gel was administered to the vagina and the responses to Ach were determined at 15-minute intervals for 2 hours. […]

The next series deals with urge incontinence. The settings on record: cited from earlier work.
The subject of series [3] is blood pressure. In words: Example 2: vascular response to Ach. In kind it is in vivo, rabbit. The note with it: entire 4-hour period.
From the text: as §1
Each rabbit was sedated with an intramuscular injection of ketamine-xylazine ((25 mg ketamine+6 mg xylazine)/kg rabbit) and anesthesia was maintained by isoflurane. […]
Acetylcholine (Ach), a chemical that causes the bladder muscle (detrusor) to squeeze or contract, was injected through the intra-arterial polyethylene catheter in a volume of 0.31-0.39 mL (i.e., 0.1 mL/kg of rabbit), followed by 0.2 mL of heparinized saline. Change of intravesical pressure following the administration of Ach (10^−6 mol/kg) was monitored by the pressure transducer and recorded on a Grass model 7D polygraph. […]
as §6

The test system of series [4] is blood pressure. The experiment in a line: Example 1: blood pressure response to intra-arterial Ach after vaginal oxybutynin gel. The series is classed as in vivo, rabbit.
From the text: as §1, §2, §4, §5

Another series concerns urgency incontinence. In words: Example 4: clinical case studies, urgency incontinence / urinary frequency, urgency and nocturia. In kind it is in vivo, human. The settings on record: person. On the procedure:
A person developed urgency incontinence two years after their laparoscopically assisted vaginal hysterectomy. […] However they experienced side effects, such as dry mouth, from the drug. Two weeks later, they started applying oxybutynin (5 mg) into the vagina at bed time, instead of Ditropan XL. […] The patient used vaginal oxybutynin (5 mg) at bed time for 6 months.
A person with a history of chronic pelvic pain and multiple surgical procedures, including pain mapping under conscious sedation and repair of occult bilateral inguinal hernias, developed urinary frequency, urgency and nocturia. Their urine analysis and urine culture were negative for signs of urinary tract infection. Their treatment began with vaginal oxybutynin (5 mg) once daily, at bed time, applied into the vagina.

[5] abbreviates: low dose (0.05 g/g gel) vaginal, two out of three experiments.
Setting [6] is: vaginally delivered high dose, overall.
The mark [7] stands for this setting: oxybutynin solution delivered by catheter (Saito).
[8] abbreviates: 5 mg into the vagina at bed time.
Where [9] appears, read: 5 mg into the vagina twice daily.
Setting [10] is: vaginal 5 mg at bed time for 6 months.

On to `CCN(CC)CC#CCOC(=O)C(O)(c1ccccc1)C1CCCCC1` (stereo not drawn) [oxybutynin], for which the “response of the bladder pressure to Ach” value is listed as “completely lost” in the series with bladder [1] (15 minutes after administration) and “did not increase” with bladder [1] (4 hours after administration). Also, the “reduction of the response of the bladder pressure to Ach” value in the series with bladder [1] (low dose (0.05 g/g gel) vaginal, one experiment) is reported as “about 50%”. In addition, the “effect on bladder pressure response to Ach” value in the series with bladder [1] (setting [5]) is “no significant effect”. The “contractile response of the bladder to Ach” value in the series on bladder [1] (setting [6]) is “significantly reduced”. The “Bladder Compliance” value with bladder [2] is “significant decrease”. The “bladder volume at micturition” value with bladder [2] was “increase”. Besides, the side effects entry in the series on urge incontinence (intravesical administration (Brendler)) was “no side effects were observed”; in the series on urge incontinence (setting [7]), “did not experience side effects”; in the series with urgency incontinence (setting [8]), “did not experience any noticeable side effects”; in the series on urgency incontinence (setting [9]), “no significant side effects”; with urgency incontinence (setting [10]) it was “did not suffer from any side effects”. In addition, the “patients who reported improvement and became totally continent” value in the series with urge incontinence (intravesical administration, eleven patients with persistent urge incontinence (Brendler)) is “Ten out of eleven”. The “effectiveness in urinary incontinence” value in the series with urge incontinence (setting [7]) is reported as “effective”. In addition, the “vascular response to Ach” value in the series with blood pressure [3] (high dose vaginal) and in the series with blood pressure [3] (low dose vaginal) was “no effect” in each case. Further, the “response of the blood pressure to Ach” value was “clear response” in the series with blood pressure [4] (high dose (0.5 g/g gel) vaginal, 15 minutes after administration); “decreased” in the series on blood pressure [4] (high dose (0.5 g/g gel) vaginal, 4 hours after administration); “without having any significant effects” with blood pressure [4] (setting [6]). In addition, the “effect on blood pressure response to Ach” value in the series on blood pressure [4] (setting [5]) is “no significant effect”. Further, the urgency symptoms result in the series on urgency incontinence (setting [8]) is “improved remarkably”. Further, the improvement of symptoms entry in the series on urgency incontinence (setting [9]) is recorded as “remarkable improvement”. In addition, the “control of symptoms of urgency incontinence” value in the series on urgency incontinence (setting [10]) is reported as “remained effective”. Also, in the series with urgency incontinence (vaginal 5 mg once daily at bed time), the “improvement of urinary frequency, urgency and nocturia” value is reported as “significant improvement”.
